Measured values taken from ChEMBL document CHEMBL5506074, “Discovery and Optimization of Tetrahydroisoquinoline Derivatives To Enhance Lysosome Biogenesis as Preclinical Candidates for the Treatment of Alzheimer's Disease” (J Med Chem, 2024).
Active and inactive are the calls of the source. The calls are words filed in the database; no cut-off is given here.

Key:
Mus musculus [1] = assay: Anti-alzheimer activity against APP/PS1 mouse model assessed as reduction in amyloid beta 42 plaque in hippocampus at 10 mg/kg, ip administered for 30 days; type: functional; set-up: scale not given: the % may be the effect or the level left; conditions: time 30 day
[2] = Induction of TFEB nuclear translocation in human HeLa cells expressing EGFP at 30 uM measured at 6 hrs by fluorescence microscopic analysis; type: functional
[3] = Clearance in ICR mouse at 5 mg/kg, iv measured upto 24 hrs by LC-MS/MS analysis; type: ADME, organism-based; conditions: in vivo
Mus musculus [4] = assay: Anti-alzheimer activity against APP/PS1 mouse model assessed as reduction in amyloid beta 42 plaque in cortex at 10 mg/kg, ip administered for 30 days; type: functional; set-up: scale not given: the % may be the effect or the level left; conditions: time 30 day
HeLa [5] = assay: Upregulation of HEXA mRNA expression in human HeLa cells at 10 uM incubated for 24 hrs by qRT-PCR analysis; type: functional, cell-based
HeLa [6] = assay: Upregulation of GLA mRNA expression in TFEB knockout human HeLa cells at 10 uM incubated for 24 hrs by qRT-PCR analysis; type: functional, cell-based
Mus musculus [7] = assay: Anti-alzheimer activity against APP/PS1 mouse model assessed as upregulation of LAMP1 mRNA expression in brain at 10 mg/kg, ip administered for 30 days; type: functional, organism-based; conditions: time 30.0 day
[8] = Toxicity in APP/PS1 mouse model assessed as change in body weight at 10 mg/kg, ip administered every other day for 30 days; type: organism-based; conditions: in vivo, 720 h, time 30 day
HeLa [9] = assay: Induction of cell cycle arrest in human HeLa cells assessed as effect on LAMP1 level at 10 uM incubated for 12 hrs by qRT-PCR analysis; type: functional, cell-based
[10] = Half life in ICR mouse at 10 mg/kg, ip measured upto 24 hrs by LC-MS/MS analysis; type: ADME, organism-based; conditions: in vivo
[11] = Ratio of drug concentration in ICR mouse brain to plasma at 10 mg/kg, ip measured upto 24 hrs by LC-MS/MS analysis; type: ADME, organism-based; conditions: brain and plasma, read-out: BPR
HeLa [12] = assay: Cytotoxicity against human HeLa cells assessed as effect on cell viability at 10 uM incubated for 24 hrs; type: functional, cell-based
HeLa [13] = assay: Upregulation of LAMP1 mRNA expression in TFEB knockout human HeLa cells at 10 uM incubated for 24 hrs by qRT-PCR analysis; type: functional, cell-based
HeLa [14] = assay: Upregulation of LAMP1 mRNA expression in human HeLa cells at 10 uM incubated for 24 hrs by qRT-PCR analysis; type: functional, cell-based
Mus musculus [15] = assay: Anti-alzheimer activity against APP/PS1 mouse model assessed as upregulation of ATG16L1 mRNA expression in brain at 10 mg/kg, ip administered for 30 days; type: functional, organism-based; conditions: time 30.0 day
Mus musculus [16] = assay: Anti-alzheimer activity against APP/PS1 mouse model assessed as upregulation of WIPL1 mRNA expression in brain at 10 mg/kg, ip administered for 30 days; type: functional, organism-based; conditions: time 30.0 day
HeLa [17] = assay: Induction of cell cycle arrest in human HeLa cells assessed as effect on CDK7 level at 10 uM incubated for 12 hrs by qRT-PCR analysis; type: functional, cell-based
[18] = target: Cyclin-dependent kinase 9 (Homo sapiens) (UniProt P50750); assay: Inhibition of CDK9 in human SH-SY5Y cells assessed as decrease in Rpb1 phosphorylation at 10 uM incubated for 6 hrs by immunoblotting analysis; type: cell-based
Cyclin-dependent kinase 9 (Homo sapiens), sequence (P50750 whole entry): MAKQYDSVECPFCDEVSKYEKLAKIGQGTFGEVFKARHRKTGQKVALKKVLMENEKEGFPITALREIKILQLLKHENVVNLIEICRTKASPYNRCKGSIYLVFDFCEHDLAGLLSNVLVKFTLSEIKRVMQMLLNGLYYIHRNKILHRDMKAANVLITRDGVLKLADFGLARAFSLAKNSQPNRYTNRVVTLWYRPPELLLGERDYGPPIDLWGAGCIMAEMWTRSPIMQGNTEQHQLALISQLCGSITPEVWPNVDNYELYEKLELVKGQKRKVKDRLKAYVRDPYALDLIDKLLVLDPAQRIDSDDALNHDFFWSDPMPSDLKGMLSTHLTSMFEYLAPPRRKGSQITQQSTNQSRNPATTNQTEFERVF

[19] = Cmax in ICR mouse at 10 mg/kg, ip measured upto 24 hrs by LC-MS/MS analysis; type: ADME, organism-based; conditions: in vivo
HeLa [20] = assay: Upregulation of GLA mRNA expression in human HeLa cells at 10 uM incubated for 24 hrs by qRT-PCR analysis; type: functional, cell-based
HeLa [21] = assay: Induction of cell cycle arrest in human HeLa cells assessed as effect on p21 level at 10 uM incubated for 12 hrs by qRT-PCR analysis; type: functional, cell-based
HeLa [22] = assay: Upregulation of UVRAG mRNA expression in human HeLa cells at 10 uM incubated for 24 hrs by qRT-PCR analysis; type: functional, cell-based
HeLa [23] = assay: Upregulation of CTSF mRNA expression in human HeLa cells at 10 uM incubated for 24 hrs by qRT-PCR analysis; type: functional, cell-based
SH-SY5Y = assay: Cytotoxicity against human SH-SY5Y cells assessed as effect on cell viability at 10 uM incubated for 24 hrs; type: functional, cell-based
HeLa [24] = assay: Upregulation of LC3B mRNA expression in TFEB knockout human HeLa cells at 10 uM incubated for 24 hrs by qRT-PCR analysis; type: functional, cell-based
[25] = Acute toxicity in C57BL/6J mouse assessed as brain damage at 50 mg/kg, ip measured upto 14 days by H and E staining based analysis; type: organism-based; conditions: in vivo, 336 h, time < 14 day
HeLa [26] = assay: Upregulation of OPTN mRNA expression in human HeLa cells at 10 uM incubated for 24 hrs by qRT-PCR analysis; type: functional, cell-based
[27] = Ratio of drug concentration in ICR mouse brain to plasma at 5 mg/kg, iv measured upto 24 hrs by LC-MS/MS analysis; type: ADME, organism-based; conditions: brain and plasma, read-out: BPR
Mus musculus [28] = assay: Anti-alzheimer activity against APP/PS1 mouse model assessed as reduction in amyloid beta plaque in hippocampus at 10 mg/kg, ip administered for 30 days; type: functional; set-up: scale not given: the % may be the effect or the level left; conditions: time 30 day
HeLa [29] = assay: Upregulation of CTSD mRNA expression in TFEB knockout human HeLa cells at 10 uM incubated for 24 hrs by qRT-PCR analysis; type: functional, cell-based
Mus musculus [30] = assay: Anti-alzheimer activity against APP/PS1 mouse model assessed as upregulation of p62 mRNA expression in brain at 10 mg/kg, ip administered for 30 days; type: functional, organism-based; conditions: time 30.0 day
[31] = Acute toxicity in C57BL/6J mouse assessed as change in body weight at 50 mg/kg, ip measured upto 14 days; type: organism-based; conditions: in vivo, 336 h, time < 14 day
HeLa [32] = assay: Upregulation of CTSD mRNA expression in human HeLa cells at 10 uM incubated for 24 hrs by qRT-PCR analysis; type: functional, cell-based
HeLa [33] = assay: Upregulation of p62 mRNA expression in human HeLa cells at 10 uM incubated for 24 hrs by qRT-PCR analysis; type: functional, cell-based
[34] = Half life in ICR mouse at 20 mg/kg, po measured upto 24 hrs by LC-MS/MS analysis; type: ADME, organism-based; conditions: in vivo
[35] = AUC (0 to t) in ICR mouse at 20 mg/kg, po measured upto 24 hrs by LC-MS/MS analysis; type: ADME, organism-based; conditions: in vivo
Mus musculus [36] = assay: Anti-alzheimer activity against APP/PS1 mouse model assessed as upregulation of CTSF mRNA expression in brain at 10 mg/kg, ip administered for 30 days; type: functional, organism-based; conditions: time 30.0 day
[37] = Induction of TFEB nuclear translocation in human HeLa cells expressing EGFP at 10 uM measured at 6 hrs by fluorescence microscopic analysis; type: functional
HeLa [38] = assay: Upregulation of Atg16L1 mRNA expression in human HeLa cells at 10 uM incubated for 24 hrs by qRT-PCR analysis; type: functional, cell-based
HeLa [39] = assay: Upregulation of HEXA mRNA expression in TFEB knockout human HeLa cells at 10 uM incubated for 24 hrs by qRT-PCR analysis; type: functional, cell-based
[40] = Tmax in ICR mouse at 20 mg/kg, po measured upto 24 hrs by LC-MS/MS analysis; type: ADME, organism-based; conditions: in vivo

Fc1ccc2[nH]cc(CCC3c4cc5c(cc4CCN3CC3CCOCC3)OCO5)c2c1 (configuration not stated)
Activity (Mus musculus [1]): 25.4%
Activity [2]: 98%
clearance [3]: 204 mL/min/kg
Activity (Mus musculus [4]): 36.3%
Activity (HeLa [5]): Active
Activity (HeLa [6]): Active
Activity (Mus musculus [7]): Active
Activity [8]: Non-Toxic
Activity (HeLa [9]): inactive
half-life [10]: 1.17 h
Kp at 24 h [11]: 5.2
Activity (HeLa [12]): Active
Activity (HeLa [13]): Active
Activity (HeLa [14]): Active
Activity (Mus musculus [15]): Active
Activity (Mus musculus [16]): Active
Activity (HeLa [17]): inactive
inhibition [18]: Active
Cmax [19]: 146 ng/mL
Activity (HeLa [20]): Active
Activity (HeLa [21]): inactive
Activity (HeLa [22]): Active
Activity (HeLa [23]): Active
Activity (SH-SY5Y): Active
Activity (HeLa [24]): Active
Activity [25]: Non-Toxic
Activity (HeLa [26]): Active
Kp at 24 h [27]: 6.9
Activity (Mus musculus [28]): 69.8%
Activity (HeLa [29]): Active
Activity (Mus musculus [30]): Active
Activity [31]: Non-Toxic
Activity (HeLa [32]): Active
Activity (HeLa [33]): Active
half-life [34]: 2.37 h
AUCt ([35]; po, 20 mg/kg, 24 h): 17.4 ng·h/mL
Activity (Mus musculus [36]): Active
Activity [37]: 79%
Activity (HeLa [38]): Active
Activity (HeLa [39]): Active
Tmax [40]: 0.42 h

c1ccc2c(CCC3NCCc4cc5c(cc43)OCO5)c[nH]c2c1 (configuration not stated)
Activity (Mus musculus [1]): 43.6%
Activity [2]: 98%
clearance [3]: 30.3 mL/min/kg
Activity (Mus musculus [4]): 47%
Activity (HeLa [5]): Active
Activity (HeLa [6]): Active
Activity (Mus musculus [7]): Active
Activity [8]: Non-Toxic
Activity (HeLa [9]): inactive
half-life [10]: 2.05 h
Kp at 24 h [11]: 1.1
Activity (HeLa [12]): Active
Activity (HeLa [13]): Active
Activity (HeLa [14]): Active
Activity (Mus musculus [15]): Active
Activity (Mus musculus [16]): Active
Activity (HeLa [17]): inactive
inhibition [18]: Active
Cmax [19]: 4720 ng/mL
Activity (HeLa [20]): Active
Activity (HeLa [21]): inactive
Activity (HeLa [22]): Active
Activity (HeLa [23]): Active
Activity (SH-SY5Y): Active
Activity (HeLa [24]): Active
Activity [25]: Non-Toxic
Activity (HeLa [26]): Active
Kp at 24 h [27]: 2.8
Activity (Mus musculus [28]): 67.5%
Activity (HeLa [29]): Active
Activity (Mus musculus [30]): Active
Activity [31]: Non-Toxic
Activity (HeLa [32]): Active
Activity (HeLa [33]): Active
half-life [34]: 3.1 h
AUC(0-t) at 24 h ([35]; ICR): 17100 ng·h/mL
Activity (Mus musculus [36]): Active
Activity [37]: 51%
Activity (HeLa [38]): Active
Activity (HeLa [39]): Active
Tmax [40]: 0.58 h
